For this test, the system named is GABAA receptor. Put plainly: whole-cell voltage-clamp, dose-response, blocked by gabazine. Set-up: species or system Mus musculus.

The term EC50 denotes the concentration giving half of the maximal effect. High values mean lower potency in that assay, low ones higher potency in that assay. `[H]/N=C(/N)NCC(=O)O` [GAA, guanidinoacetate] yielded an EC50 of 134 µM.

The values are drawn from publication PMC13596996 (Cell, 2026).
